The test system of assay [1] is unilateral 6-OHDA-lesioned rats. Nature of the assay: Video-based behavioural profile analysis (Ethovision) in drug-naive hemi-parkinsonian rats. The conditions noted are these: % of the veh-treated rats; for Distance (quantity of movement): Radiprodil 3 mg/kg po, Tozadenant 30 mg/kg po, LD25 ip, LD/BZ 16/4 mg/kg ip; for Adequate body position / Adequate trajectory (gyration radius) / Contra turns (ability to shift direction) / Ipis turns (ability to shift direction): same doses. Format: in vivo, rat. How it is done: The specific behavioural profile of unilateral 6-OHDA-lesioned rats was recorded via 8 cameras connected to a video acquisition system. Rats under treatment were placed freely in a small environment (rotometers, 25×22 cm) or in large open-field (50×40 cm) and the behaviour was video-recorded for 55 minutes (total of 3300 sec). The placement in the small (rotometers) or large (open-field) environment may depend on the test. The rats were filmed from below as described in the section which concerns the rotational activity.
After the in-live data recordings, the videos are subsequently analyzed by the Ethovision program from (Noldus, version 9.0). The animal and its movements and displacements were defined according to three points (nose, center and tail). The movements, position of the body and, the space occupation, were set-up according to the filter analysis defined with specific criteria and thresholds in the program. Various behavioural parameters were analyzed and only the relevant, i.e. the non-correlated ones, were kept for the final behavioural description.
The analysis of the other types of behaviours was done with specific parameters selected in the video analysis program (Ethovision 9.0) in order to describe as best as possible the behaviour observed visually and being able to quantify it. The parameters “Distance”, “Counter Clockwise rotations”, “Clockwise rotations”, “Streched” were extracted from the analysis. Additional parameter, the “gyration radius” is calculated from the raw data obtained by the system. • Distance (=“distance”): the total distance moved by the animal (cm) • Counter clockwise (=“ipsilateral turns”): count of the number of 360° turns of ipsilateral rotations in the same sense than that of the lesion. • Clockwise (=“contralateral turns”): count of the number of 360° turns of contralateral rotations in the opposite sense to that of the lesion. • Stretched: (=“adequate body position”): time spent in a position wherein the rat stands on its four paws without any bent position of the trunk. In the program this is the parameter “body elongation” that is used to discriminate the intensity and frequency of the adequate body position. The threshold is fixed at 70%. • Gyration Radius (=“adequate trajectory”): for a specific time interval, average distance between the animal position and its average position within this specific time interval. This parameter reflect the ability of the rats to use the entire space of the arena and is measured in centimeters. Statistical Analysis
Specific behavioural analysis: The five behaviours kept for the thorough behavioural analysis (i.e. distance, contra turns, ipsi turns, adequate body position and adequate trajectory) were analyzed with parametric statistic however if variance homogeneity was not respected for the data (Bartlett's test for equal variances) these latter were analyzed with non-parametric statistics (Kruskal-Wallis). In both case, one-way ANOVA was performed to discriminate the effect of the various treatments on each independent behaviours. Significant differences between means were determined by Tukey post hoc test or Dunn's Multiple Comparison test with p<0.05.
The effects of the oral co-administration of Radiprodil (3 mg/kg, po) with Tozadenant (30 mg/kg, po) on the rat behaviour are compared to the testing of: • 1) these compounds separately • 2) a partially active dose of L-Dopa (25 mg/kg, ip) • 3) a fully active dose of L-Dopa/benserazide (16/4 mg/kg, ip).
The behavioural profile was analyzed in detail with an automated behavioural analysis system based on video recordings (see methods section for the description). In addition, classical measurements (rotometers and actometers) of the behaviour are also used to assess quantity of movements. […]

Assay [2] shares this test system. Nature of the assay: Chronic add-on treatment to an active dose of L-Dopa/benserazide (10 acquisition sessions; rotometers and open-field). It is filed as in vivo, rat. The conditions noted are these: plus L-Dopa 14 mg/kg/benserazide 3.5 mg/kg; in comparison to Tozadenant-treated rats (FIG. 16). On the procedure: Rotational behaviour was recorded using a home-made computerized system. Rats were fixed in a harness, linked to mechanical sensors that were directly connected to a PC. Each 360° clock-wise or counter clock-wise turn was automatically recorded for up to 240 minutes at the maximum. Throughout the experiments, rats were allocated to individual test cages. Each of 8 clear acrylic chambers (50×40 cm), placed on a level, clear glass bottom, held by a robust frame, could be subdivided into 4 individual square test cages of 25×22 cm. A removable acrylic plate serves as a lid. […] Video sequences were recorded on hard disk for storage and subsequently transferred to PC for analysis and conservation. […]
Data of the acquisition session under treatment with A2A and/or NR2B antagonist plus L-Dopa/benserazide were analyzed by two-way repeated measures ANOVA with chronic session as within-subjects factor (10 session levels). The reliabilities of the between-mean differences were assessed with planned contrasts using an F statistic. […]
Ten acquisition sessions (once/day) of L-Dopa (14 mg/kg)/benserazide (3.5 mg/kg) given in co-administration to veh, Tozadenant, Radiprodil or the combination of both compounds increase progressively the level of L-Dopa-induced contralateral rotations when measured in rotometers (FIG. 15). […]

`O=C(Nc1ccc2[nH]c(=O)oc2c1)C(=O)N1CCC(Cc2ccc(F)cc2)CC1` [Radiprodil]: in assay [1] (0-20′), the “Distance (quantity of movement)” value is “++ (300-500%)”, the Adequate body position entry is recorded as “++ (300-500%)”, the “Adequate trajectory (gyration radius)” value is listed as “++ (300-500%)” and the “Contra turns (ability to shift direction)” value is recorded as “+ (200-300%)”. The “Ipis turns (ability to shift direction)” value in assay [1] (0-20′) is listed as “+ (200-300%)”. Moreover, in assay [1] (30-50′), the “Distance (quantity of movement)” value is “+ (200-300%)”, the Adequate body position result is recorded as “++ (300-500%)”, the “Adequate trajectory (gyration radius)” value is listed as “++ (300-500%)” and the “Contra turns (ability to shift direction)” value is given as “+ (200-300%)”. Further, in assay [1] (30-50′), the “Ipis turns (ability to shift direction)” value is given as “+ (200-300%)”. The “level of severe AIMs in larger open-field, chronic add-on” value in assay [2] is on record as “level of severe AIMs is reduced”.

The values are drawn from US9387212B2, “Methods for treating Parkinson's disease” (UCB Pharma S.A., priority 2012, dated 2016).
